Experimental findings from patent US4014876A, “Isoxazole derivatives” (Shionogi & Co., Ltd., priority 1969, dated 1977) are described below.

One series has as its system blood-sugar. As to the kind of experiment: Hypoglycemic activity in alloxan-treated rats (Blood-Sugar-Level, oral). In kind it is in vivo, rat (alloxan-treated adult male). The note with it: for Percentage of Blood-Sugar-Level (B.S.L.), 1 hr after / Percentage of Blood-Sugar-Level (B.S.L.), 3 hr after / Percentage of Blood-Sugar-Level (B.S.L.), 5 hr after: alloxan rats, change vs control; for Percentage of Blood-Sugar-Level (B.S.L.), Total: total of 1, 3 and 5 hr percentages. The method, then:
Assay and control groups of rats were used, each group consisting of 5 adult male rats weighing 200 to 250 g and showing about 250 to 350 mg/dl-blood as the initial blood-sugar value, after being treated once with 50 mg/kg of alloxan (i.v.) one week before the assay. The assay and control groups were orally administered a 5 % gum arabic suspension with and without the test compound, respectively. Measurement of the absolute blood-sugar value was carried out thrice (i.e. 1 hour after, 3 hours after, and 5 hours after administration) and the values were compared with those of the control group. Blood-sugar values were determined by an assay technique using the marketed enzymatic glucose reagent: Glucostat (Trade Mark of Worthington Biochemical Corporation, Freehold, N.J., U.S.A.).
In effect, the marks + and -correspond to increasing and decreasing
tendency of B.S.L., respectively, after eliminating the difference in
value between the assay and control groups.

In a further series the test system is Blood Free-Fatty-Acid. As to the kind of experiment: Blood Free-Fatty-Acid (B.F.F.A.) lowering activity in fasted rats (oral). In kind it is in vivo, rat (male). The conditions noted are these: 100 mg/kg p.o.; for B.F.F.A. Level, 1 hr after / B.F.F.A. Level, 3 hr after / B.F.F.A. Level, 5 hr after: fasted rats; for B.F.F.A. Level, Total: total of 1, 3 and 5 hr values. How it is done: Several groups of male rats weighing 200 to 250 g, each group consisting of 5 rats, were used in the test. Assay and control groups were fasted during 24 hours and then orally given 5 % gum arabic suspension with and without the test compound (100 mg/kg p.o.), respectively. All animals tested were decapitated 1 hour after, 3 hours after, or 5 hours after the treatment, and blood samples were drawn for B.F.F.A. value determination. A percentage factor, as B.F.F.A. Level, was determined according to the Itaya-Ui method [K. Itaya, et al.: J. Lipid Research, Vol. 6, 18 (1965)], calculated by the following equation: [formula] b) Result
B.F.F.A. Levels are shown in Table II, together with + and - marks and the total of the three values for each compound.

A further series can be described thus: in vivo. The note with it: mouse, oral, mice, 24 hours observation. The source says: For each dose 10 male mice were used, their body-weights ranging from 19 to 21 grams. […] The LD50 means the amount of the test compound being expected to kill just half the number of the animals treated.

Some results are limits rather than exact numbers.

`CCc1cc(C(=O)NC(=O)NC(C)C)no1` [Compound 1, N'-i-propyl-N-(5-ethyl-3-isoxazolylcarbonyl)urea]: in the series with blood-sugar (10 mg/kg dose), the “Percentage of Blood-Sugar-Level (B.S.L.), 1 hr after” value (from here on “Percentage … 1 hr after”) is recorded as -8%; the “Percentage of Blood-Sugar-Level (B.S.L.), 3 hr after” value (from here on “Percentage … 3 hr after”) is “+2%”; the “Percentage of Blood-Sugar-Level (B.S.L.), 5 hr after” value (from here on “Percentage … 5 hr after”) is recorded as “+2%”; the “Percentage of Blood-Sugar-Level (B.S.L.), Total” value (from here on “Percentage … Total”) is on record as -4%. Also, in the series on blood-sugar (100 mg/kg dose), the “Percentage … 1 hr after” value was -54%; the “Percentage … 3 hr after” value was -63%; the “Percentage … 5 hr after” value is reported as -43%; the “Percentage … Total” value is -160%.
For `Cc1cc(C(=O)NC(=O)N(C)C)no1` [Compound 2, N',N'-dimethyl-N-(5-methyl-3-isoxazolylcarbonyl)urea], in the series with blood-sugar (10 mg/kg dose), the “Percentage … 1 hr after” value is -45%; the “Percentage … 3 hr after” value was -59%; the “Percentage … 5 hr after” value is reported as -29%. In addition, in the series on blood-sugar (100 mg/kg dose), the “Percentage … 1 hr after” value was -33%; the “Percentage … 3 hr after” value was -59%; the “Percentage … 5 hr after” value is recorded as -59%; the “Percentage … Total” value is on record as -151%.
As usually defined, the LD50 is the dose at which mortality reaches 50%. Low values mean a more toxic substance, high ones a less toxic substance. `Cc1cc(C(=O)NC(=N)N)no1` [Compound 3, 1-(5-methyl-3-isoxazolylcarbonyl)guanidine]: in the series on blood-sugar (10 mg/kg dose), the “Percentage … 1 hr after” value is reported as -11%; the “Percentage … 3 hr after” value is listed as -39%; the “Percentage … 5 hr after” value is on record as -32%; the “Percentage … Total” value is -82%. Moreover, in the series with blood-sugar (100 mg/kg dose), the “Percentage … 1 hr after” value is listed as -30%; the “Percentage … 3 hr after” value is given as -56%; the “Percentage … 5 hr after” value is listed as -52%; the “Percentage … Total” value is recorded as -138%. Further, in the series on Blood Free-Fatty-Acid, the “B.F.F.A. Level, 1 hr after” value is on record as -70%; the “B.F.F.A. Level, 3 hr after” value is -15%; the “B.F.F.A. Level, 5 hr after” value is listed as -8%; the “B.F.F.A. Level, Total” value is recorded as -93%. For the same compound, in the series “in vivo”, the LD50 at 24 h was 2000 to 3000 mg/kg.
As for `CNC(=O)N(C)C(=O)c1cc(C)on1` [Compound 4, N,N'-dimethyl-N-(5-methyl-3-isoxazolylcarbonyl)urea], in the series with blood-sugar (10 mg/kg dose), the “Percentage … 1 hr after” value is given as -15%; the “Percentage … 3 hr after” value is -36%; the “Percentage … 5 hr after” value is -20%; the “Percentage … Total” value is reported as -71%. Moreover, in the series on blood-sugar (100 mg/kg dose), the “Percentage … 1 hr after” value is reported as -22%; the “Percentage … 3 hr after” value is -51%; the “Percentage … 5 hr after” value was -59%; the “Percentage … Total” value is given as -132%.
Regarding `Cc1cc(C(=O)N(C)C(=O)N(C)C)no1` [Compound 5, N,N',N'-trimethyl-N-(5-methyl-3-isoxazolylcarbonyl)urea], in the series with blood-sugar (10 mg/kg dose), the “Percentage … 1 hr after” value is -19%; the “Percentage … 3 hr after” value is recorded as -39%; the “Percentage … 5 hr after” value is given as -39%; the “Percentage … Total” value is reported as -97%. Moreover, in the series on blood-sugar (100 mg/kg dose), the “Percentage … 1 hr after” value is -24%; the “Percentage … 3 hr after” value is -40%; the “Percentage … 5 hr after” value is -40%; the “Percentage … Total” value is given as -104%.
Consider `CCCCNC(=O)NS(=O)(=O)c1ccc(C)cc1` [Compound 6, Tolbutamide, reference compound], for which, in the series on blood-sugar (100 mg/kg dose), the “Percentage … 1 hr after” value is given as -9%; the “Percentage … 3 hr after” value was -26%; the “Percentage … 5 hr after” value is recorded as -23%; the “Percentage … Total” value is listed as -58%. Besides, in the series with Blood Free-Fatty-Acid, the “B.F.F.A. Level, 1 hr after” value is -40%; the “B.F.F.A. Level, 3 hr after” value is -45%; the “B.F.F.A. Level, 5 hr after” value is 0%; the “B.F.F.A. Level, Total” value was -85%.
Regarding `Cc1cc(C(=O)NC(=O)NC2CCCCC2)no1` [N'-cyclohexyl-N-(5-methyl-3-isoxazolylcarbonyl)urea], in the series on Blood Free-Fatty-Acid, the “B.F.F.A. Level, 1 hr after” value is -27%; the “B.F.F.A. Level, 3 hr after” value is -34%; the “B.F.F.A. Level, 5 hr after” value is on record as -23%; the “B.F.F.A. Level, Total” value was -84%.
`Cc1cc(C(=O)NC(=O)NC(C)C)no1` [N'-i-propyl-N-(5-methyl-3-isoxazolylcarbonyl)urea]: in the series with Blood Free-Fatty-Acid, the “B.F.F.A. Level, 1 hr after” value is listed as -75%; the “B.F.F.A. Level, 3 hr after” value is -67%; the “B.F.F.A. Level, 5 hr after” value was -49%; the “B.F.F.A. Level, Total” value was -191%. Also, the LD50 at 24 h in the series “in vivo” lay in the range of 7000 to 8000 mg/kg.
In the case of `CCCCNC(=O)NC(=O)c1cc(C)on1` [N'-n-butyl-N-(5-methyl-3-isoxazolylcarbonyl)urea], in the series with Blood Free-Fatty-Acid, the “B.F.F.A. Level, 1 hr after” value is listed as -59%; the “B.F.F.A. Level, 3 hr after” value is -59%; the “B.F.F.A. Level, 5 hr after” value is reported as -30%; the “B.F.F.A. Level, Total” value is on record as -129%.
On to `Cc1cc(C(=O)NC(N)=S)no1` [N-(5-methyl-3-isoxazolylcarbonyl)thiourea], for which, in the series on Blood Free-Fatty-Acid, the “B.F.F.A. Level, 1 hr after” value is recorded as -60%; the “B.F.F.A. Level, 3 hr after” value is listed as -36%; the “B.F.F.A. Level, 5 hr after” value is “+13%”; the “B.F.F.A. Level, Total” value is given as -83%.
Turning to `Cc1cc(C(=O)NC(N)=O)no1` [N-(5-methyl-3-isoxazolylcarbonyl)urea], the LD50 at 24 h in the series “in vivo” is over 10000 mg/kg.
